Measured values published in US20220041627A1, “PRODRUGS OF ANTI-CANCER AND ANTI-AUTOIMMUNE DISEASES THERAPEUTIC AGENTS, AND METHODS OF MAKING AND USE THEREOF” (UNIVERSITY OF MARYLAND, BALTIMORE, priority 2018, published 2022).

Tests used:
breast cancer MCF7 cells = experiment: Cell viability (CCK8) in breast cancer MCF7 cells; assay type: cell-based, human; conditions: different concentrations, compared with parent drug 5-FU
Procedure: FIGS. 2A and 2B illustrate the anticancer effects and selectivity of 5-FU and compounds 1a-1c. Cell viability was analyzed after the breast cancer MCF7 cells (FIG. 2A) and normal MEC1 cells (FIG. 2B) were treated with 5-FU or compounds 1a-1c at different concentrations. Data are presented as mean±SD, n=4.
Cell Counting Kit-8 (CCK8, Dojingo) was used to carry out the cytotoxicity assessment of the prodrugs. Seeded cells were treated with varying compound concentrations for 48-72 h and the CCK8 kit was used to measure the cytotoxicity. For NAC experiments, this ROS scavenger was pre-incubated with the cells for 2 h and then co-incubated with the prodrugs for additional 48 hours unless otherwise noted.
The anticancer effects of new compounds 1a and 1b were tested using the breast cancer MCF7 cells and normal MEC1 cells (FIGS. 2A and 2B). […] These differential killing results highlight the specificity of new prodrugs 1a-1b for cancer cells over normal cells. […] To further verify the role of ROS in the drug release process, the MTT assays was performed, using MCF7 cells pretreated with the ROS scavenger N-Acetyl-Cysteine (NAC).

γH2AX = γH2AX immunofluorescence assay in MCF7 cells; assay type: cell-based, human; conditions: 48 h
Procedure: (§1) FIGS. 4A and 4B illustrate the effect of compounds 1a-1b in apoptosis. FIG. 4A: immunofluorescence of DNA cleavage protein γH2Ax was enhanced by using 5-FU and prodrugs 1a-1b. FIG. 4B: immunoblot analysis of MCF-7 cells treated with 5-FU, prodrugs 1a-1b for apoptosis markers PARP1 and Caspase 3. The cells were treated for 48 h with the indicated concentrations of compounds.
Immunohistochemistry Analysis. MCF7 cells were seeded on poly-D-lysine coated slides. Compounds were incubated with cells for 48 h. Following treatment, cells were washed once in PBS and fixed in 10% formalin for 20 min at room temperature. Methanol was used to permeabilize the cells for 10 min and PBS wash was carried out. Bovine serum albumin was used for 1 h blocking and primary antibodies for γH2AX (SCBT, #sc-517348) was incubated with the cells overnight. Fluorescent secondary antibodies were incubated with cells along with DAPI. Cells were washed trice with PBS and the slides were mounted prior to confocal imaging.
(§2) To understand the mechanism of action of prodrugs 1a-1b, the impact of the treatment of compounds 1a-1b on the γH2AX formation in MCF7 cells were determined using immunofluorescence assay (FIG. 4A). […] The effects of prodrugs 1a-1b on the PARP1 and caspase 3 cleavage in MCF7 cells were also determined using Western blots assays (FIG. 4B). […] Treatment of 5-FU and compounds 1a-1b increased the levels of cleavage of PARP1 and caspase 3 in MCF7 cells, as compared with that in the vehicle-treated controls. Therefore, prodrugs 1a-1b, similar to 5-FU, can induce MCF7 cell apoptosis, which might contribute to their pharmacological actions.

PARP1 = experiment: Western blot of PARP1 in MCF7 cells; assay type: cell-based, human; conditions: 48 h
Procedure: as §1
(§3) Western Blot Analysis. Treated cells were washed once with PBS and lysed with RIPA lysis buffer (Santa Cruz Biotechnology, SCBT, #24948) supplemented with sodium orthovanadate, PMSF, protease and phosphatase inhibitor cocktails (Sigma Aldrich). Cell lysates were centrifuge for 15 min at 14,000×g and the supernatant was used for immunoblotting. Protein concentration was normalized for the samples and resolved on a 10-13% SDS-PAGE gel. Following transfer to nitrocellulose membrane, specific mouse primary antibodies from SCBT (PARP1 #sc-8007, caspase 3 #sc-7272) and Cell Signaling (cleaved PARP1 #9541, cleaved caspase-3 #9664) were added and incubated overnight. Secondary antibodies corresponding to the host of the primary antibodies was further incubated with the membrane and washed three times to remove excess antibodies. Odyssey Fc Imaging System (LI-COR, Lincoln, Nebr.) was used to quantify the chemiluminescent of the proteins.
as §2

caspase 3 = experiment: Western blot of caspase 3 in MCF7 cells; assay type: cell-based, human; conditions: 48 h
Procedure: as §1, §3, §2

[1] = system: wild-type C57BL/6 male mice; experiment: Acute toxicity in mice; assay type: in vivo; conditions: 100 mg/kg i.p. every other day for 15 days, C57BL/6 male mice
Procedure: FIGS. 5A and 5B illustrate the survival rate (FIG. 5A) and body weight (FIG. 5B) curves of the various groups of mice. […] Mice were treated every other day by intraperitoneal (i.p.) injection for 15 days, the survival and body weights of the mice were recorded after treatment.
Mice were treated every other day by intraperitoneal (i.p.) injection for 15 days, the survival and body weights of the mice were recorded after treatment.

[2] = molecular target: dihydropyrimidine dehydrogenase (DPD) (Homo sapiens, UniProt Q12882); conditions: injected 5-FU, degradation into 5-FUH2; cited from earlier work
[3] = system: human colorectal cancer cells SW480; experiment: Anti-proliferative activity in SW480 cells; assay type: cell-based; conditions: 10 μM, compared to parent drug 6MP
Procedure: FIG. 12 illustrates the anticancer effects and selectivity of 6MP (10 μM), prodrugs YA6131 (10 μM) and YA6075 (10 μM), evaluated in human colorectal cancer cells SW480 and normal HEK293 cells.
Anticancer effects and selectivity of 6MP (10 μM), prodrugs YA6131 (10 μM) and YA6075 (10 μM): the anticancer activities of prodrugs YA6131 and YA6075 were evaluated in comparison to the parent drug 6MP using the human colorectal cancer cells SW480 and normal HEK293 cells (FIG. 12). […] Without wishing to be bound by any particular theory, it was reasoned that the difference of the anticancer effects of the two prodrugs were due to their different release kinetics of the two compounds in the particular cells used.

[4] = compared to vehicle-treated cells
[5] = compared to vehicle-treated controls

Chain of dihydropyrimidine dehydrogenase (DPD) (Q12882 4-1025): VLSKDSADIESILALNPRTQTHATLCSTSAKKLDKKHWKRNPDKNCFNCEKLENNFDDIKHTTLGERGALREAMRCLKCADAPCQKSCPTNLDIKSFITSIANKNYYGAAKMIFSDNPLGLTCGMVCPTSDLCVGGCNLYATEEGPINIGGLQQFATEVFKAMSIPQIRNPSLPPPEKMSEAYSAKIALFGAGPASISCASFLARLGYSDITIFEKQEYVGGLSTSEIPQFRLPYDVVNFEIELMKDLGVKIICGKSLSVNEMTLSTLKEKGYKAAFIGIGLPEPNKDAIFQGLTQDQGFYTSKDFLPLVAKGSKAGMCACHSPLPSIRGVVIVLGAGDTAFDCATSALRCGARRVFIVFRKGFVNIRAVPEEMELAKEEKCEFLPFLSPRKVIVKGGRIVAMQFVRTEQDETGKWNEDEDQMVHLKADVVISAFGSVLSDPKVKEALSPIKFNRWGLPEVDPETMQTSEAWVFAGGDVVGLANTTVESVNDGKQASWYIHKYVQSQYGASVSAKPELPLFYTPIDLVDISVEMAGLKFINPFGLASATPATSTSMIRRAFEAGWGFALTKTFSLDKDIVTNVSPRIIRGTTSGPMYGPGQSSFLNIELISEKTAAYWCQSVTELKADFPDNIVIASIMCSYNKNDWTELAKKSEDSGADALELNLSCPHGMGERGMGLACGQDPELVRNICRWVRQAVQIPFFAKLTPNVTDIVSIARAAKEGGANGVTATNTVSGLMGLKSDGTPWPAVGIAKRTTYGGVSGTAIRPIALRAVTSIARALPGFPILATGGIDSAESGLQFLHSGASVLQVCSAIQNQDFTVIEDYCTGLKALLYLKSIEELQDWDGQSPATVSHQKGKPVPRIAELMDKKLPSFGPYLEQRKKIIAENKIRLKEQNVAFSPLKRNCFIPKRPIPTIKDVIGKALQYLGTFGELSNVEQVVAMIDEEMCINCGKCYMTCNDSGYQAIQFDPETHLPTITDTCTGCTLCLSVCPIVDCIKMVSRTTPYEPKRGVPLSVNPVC

## O=c1[nH]c(=O)n(Cc2ccccc2)cc1F [Compound 1c, 1-Benzyl-5-fluoropyrimidine-2,4(1H,3H)-dione]
Breast cancer MCF7 cells
  antiproliferative activity / anticancer effects: no obvious antiproliferative effects

## O=c1[nH]cc(F)c(=O)[nH]1 [Compound 5-FU, 5-fluorouracil, reference compound]
γH2AX
  γH2AX formation: enhanced
PARP1; [4]
  expression level of PARP1: significantly reduced
PARP1; [5]
  level of cleavage of PARP1: increased
Caspase 3; [4]
  expression level of caspase 3: significantly reduced
Caspase 3; [5]
  level of cleavage of caspase 3: increased
[1]
  survival / animal death: killed all mice on the twelfth day
[2]
  share of injected doses deactivated by DPD: more than 85%

## CC1(C)OB(c2ccc(Cn3cnc4c(S)ncnc43)cc2)OC1(C)C [YA6075, 9-(4-(4,4,5,5-Tetramethyl-1,3,2-dioxaborolan-2-yl)benzyl)-9H-purine-6-thiol]
[3]
  anti-proliferative activity: reduced effect

## CC1(C)OB(c2ccc(CSc3ncnc4[nH]cnc34)cc2)OC1(C)C [YA6131]
[3]
  anti-proliferative activity: similarly potent anti-proliferative activity as compared to 6MP
